Test results: PMC2680961, “Homologous desensitization of signalling by the alpha (α) isoform of the human thromboxane A2 receptor: A specific role for nitric oxide signalling” (Biochimica et Biophysica Acta, 2007)
Substitutions are numbered along the chain they refer to.

Legend:
TPα^S329A = target: T1, TPα^S329A (Homo sapiens, UniProt P21731, S329A); experiment: Intracellular calcium mobilization, HEK.TPα^S329A cells; format: cell-based
T1 construct: expressed in transfected cells
T1 sequence (P21731 1-343 S329A): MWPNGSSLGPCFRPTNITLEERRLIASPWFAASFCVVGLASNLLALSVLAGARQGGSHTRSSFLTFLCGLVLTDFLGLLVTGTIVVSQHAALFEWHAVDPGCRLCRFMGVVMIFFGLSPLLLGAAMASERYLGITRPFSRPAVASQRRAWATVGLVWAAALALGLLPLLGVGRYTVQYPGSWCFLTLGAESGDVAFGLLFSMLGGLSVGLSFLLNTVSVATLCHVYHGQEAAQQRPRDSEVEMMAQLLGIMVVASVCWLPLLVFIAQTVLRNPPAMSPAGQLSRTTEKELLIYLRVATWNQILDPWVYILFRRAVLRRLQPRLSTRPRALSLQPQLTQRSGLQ
Protocol: (§1) Measurement of intracellular calcium mobilization ([Ca^2+]i) in FURA2/AM preloaded HEK 293 cell lines (2 × 10^6 cells/dish), each transiently co-transfected with pADVA (10 μg), and pCMV:Gαq (25 μg), was carried out as previously described. To investigate the effect of GRK2/βARK1 on TP-mediated [Ca^2+]i mobilization, HEK.TPα or HEK.TPβ cells (2 × 10^6 cells/dish) were co-transfected with pADVA (10 μg), pCMV:Gαq (25 μg) along with pRK5:βARK1^495–689 (25 μg), encoding a dominant negative form of GRK2/βARK1[39]. […] For each measurement of [Ca^2+]i mobilization, aliquots of cells were diluted to 0.825 × 10^6 cells/ml in HBSSHB, 1 mM CaCl2 and FURA2 fluorescence was recorded (2 ml aliquots of cells) at 37^ °C with gentle stirring with a Perkin Elmer-Cetus LS50-B spectrofluorometer at excitation wavelengths of 340 nm and 380 nm and emission wavelength of 510 nm, respectively.
(§2) Cells were stimulated with the TP agonist U46619 (1 μM) and changes in [Ca^2+]i mobilization were monitored as a function of time. […]
(§3) The vehicle had no effect on U46619-mediated [Ca^2+]i mobilization. Calibration of the signal was performed in each sample by adding 0.2% Triton X-100 to obtain the maximal fluorescence ratio (Rmax) and then 1 mM EGTA to obtain the minimal fluorescence ratio (Rmin). […]

TPα^T337,S340A = target: T2, TPα^T337,S340A (Homo sapiens, UniProt P21731, S340A/T337A); experiment: Intracellular calcium mobilization, HEK.TPα^T337,S340A cells; format: cell-based
T2 construct: expressed in transfected cells
T2 sequence (P21731 1-343 T337A/S340A): T1 sequence (P21731 1-343 S329A) with A329S, T337A, S340A
Protocol: as §1, §2, §3

TPα^S239A = target: T3, TPα^S239A (Homo sapiens, UniProt P21731, S239A); experiment: [3H]SQ29,548 radioligand binding, Scatchard analysis, HEK.TPα^S239A
T3 construct: expressed in transfected cells
T3 sequence (P21731 1-343 S239A): T1 sequence (P21731 1-343 S329A) with S239A, A329S
Protocol: Cells were harvested by centrifugation at 500×g at 4 °C for 5 min and washed three times with ice-cold Ca^2+/Mg^2+-free phosphate-buffered saline (PBS). TP radioligand binding assays were carried out at 30 °C for 30 min in 100 μl reactions in the presence of 0–40 nM [^3H] […] Protein determinations were carried out using the Bradford assay.
Radioligand binding and Scatchard analysis data were analysed using GraphPad Prisim V4.0 programme (GraphPad Software Inc., San Diego CA, USA). Statistical analyses were carried out using the unpaired Student's t test using the Statworks Analysis Package. p-values ≤ 0.01 indicated statistically significant differences.

[1] = secondary 1 μM U46619 at 15 min

SMILES | Δ[Ca2+]i, U46619-induced (TPα^S329A; primary 1 μM U46619 4 min) | Δ[Ca2+]i, U46619-induced (TPα^S329A; [1]) | Δ[Ca2+]i, U46619-induced (TPα^T337,S340A; primary 1 μM U46619 4 min) | Δ[Ca2+]i, U46619-induced (TPα^T337,S340A; [1]) | Bmax (pmol/mg protein ± S.E.M.) (TPα^S239A)
CCCCC[C@H](O)/C=C/[C@@H]1[C@@H](C/C=C\CCCC(=O)O)[C@H]2CO[C@@H]1C2 [U46619] | 228 ± 7.7 nM | 0 nM | 179 ± 11 nM | 40 ± 3.4 nM | 
O=C(O)CCC/C=C\C[C@@H]1[C@H](CNNC(=O)Nc2ccccc2)[C@H]2CC[C@@H]1O2 [SQ29,548] |  |  |  |  | 4.35 ± 0.04 pmol/mg protein
